Measurements from patent publication US6660309B2, “Antitumor agent” (Biozak, Inc., priority 2001, dated 2003).

Assays:
βTC-6 cells = assay: Tolbutamide-induced insulin secretion in βTC-6 cells (FIG. 2); assay type: cell-based
Experimental: FIG. 2 is a graph showing the effect of Composition A on tolbutamide-induced insulin secretion in βTC-6 cells.
(§1) In order to avoid interference from the natural insulin secretagogue glucose, the effect of Composition A on insulin secretion was studied under glucose-free conditions. The sulfonylurea compound, tolbutamide was used as the insulin secretagogue in the studies of the effect of Composition A on stimulated insulin secretion.
(§2) Insulin assays were performed using the rat insulin assay kit purchased from Crystal Chemists, Inc. (Chicago, Ill., USA). This kit uses a in an Enzyme Linked Immunosorbent Assay (non-competitive sandwich method). The assay was performed according to the manufacturer's protocol. Briefly, the standard or sample (5 μl) diluted with a sample diluent was added to the wells of a multi-well polystyrene plate. The wells were precoated with antiinsulin antibody. After 2 hours of incubation, the wells were thoroughly washed with a washing buffer. A peroxidase-conjugated antiinsulin antibody solution was then added to the well. […] The color was read in an microplate reader using a 405 filter. […]
(§3) The effect of Composition A on tolbutamide-induced insulin secretion in HIT-T15 and βTC-6 cells is shown in […]. […] Samples were measured 1 hour later. […]

HIT-T15 cells = assay: Tolbutamide-induced insulin secretion in HIT-T15 cells (FIG. 3); assay type: cell-based; conditions: FIG. 3, tolbutamide alone, 1 hour; without tolbutamide about 0.17
Experimental: FIG. 3 is a graph showing the effect of Composition A on tolbutamide-induced insulin secretion in HIT-T15 cells.
as §1, §2, §3

CCCCNC(=O)NS(=O)(=O)c1ccc(C)cc1 [tolbutamide]
Insulin production with tolbutamide alone (βTC-6 cells; FIG. 2, tolbutamide 10 μg/ml alone, 1 hour, without tolbutamide 0.9): 1.2 ng/ml/mg protein
More insulin secreted by tolbutamide-treated cells than by untreated cells (βTC-6 cells; βTC-6, 1-hour period following glucose deprivation and replacement of the medium): approximately 30%
Insulin secretion with tolbutamide alone (HIT-T15 cells): about 0.3 ng/ml/mg protein
